Reference: ChEMBL document CHEMBL3112543, “Discovery of MK-7655, a β-lactamase inhibitor for combination with Primaxin®” (Bioorg Med Chem Lett, 2014)

Tests used:
Pseudomonas aeruginosa = assay: Inhibition of beta-lactamase in Pseudomonas aeruginosa CL 5701 assessed as drug concentration required to reduce imipenem MIC to 4 ug/ml
Beta-lactamase = Beta-lactamase (Acinetobacter baumannii, UniProt Q8RLA6); assay: Inhibition of beta-lactamase Oxa40 in Acinetobacter baumannii assessed as inhibition of hydrolysis of nitrocefin
Chain of Beta-lactamase (Q8RLA6 whole entry): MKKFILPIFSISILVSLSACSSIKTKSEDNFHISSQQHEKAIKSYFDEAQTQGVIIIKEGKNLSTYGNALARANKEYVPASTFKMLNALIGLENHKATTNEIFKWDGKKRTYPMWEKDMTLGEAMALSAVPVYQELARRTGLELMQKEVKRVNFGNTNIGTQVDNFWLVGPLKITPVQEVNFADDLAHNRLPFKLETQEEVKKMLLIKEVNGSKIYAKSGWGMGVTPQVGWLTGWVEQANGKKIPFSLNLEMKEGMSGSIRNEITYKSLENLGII

Acinetobacter baumannii = assay: Inhibition of beta-lactamase in Acinetobacter baumannii CL 6188 assessed as drug concentration required to reduce imipenem MIC to 4 ug/ml
[1] = Inhibition of beta-lactamase AmpC in Acinetobacter baumannii assessed as inhibition of hydrolysis of nitrocefin
[2] = Inhibition of beta-lactamase AmpC in Pseudomonas aeruginosa assessed as inhibition of hydrolysis of nitrocefin
[3] = Inhibition of beta-lactamase KPC-2 in Klebsiella pneumoniae assessed as inhibition of hydrolysis of nitrocefin
Klebsiella pneumoniae = assay: Inhibition of beta-lactamase in Klebsiella pneumoniae CL 6569 assessed as drug concentration required to reduce imipenem MIC to 4 ug/ml

Structure (SMILES)	INH (Pseudomonas aeruginosa)	IC50 (Beta-lactamase)	INH (Acinetobacter baumannii)	IC50 [1]	IC50 [2]	IC50 [3]	INH (Klebsiella pneumoniae)
O=C(Nc1cccnc1)[C@@H]1CC[C@@H]2CN1C(=O)N2OS(=O)(=O)O	100 µM	20000 nM	> 100 µM	1200 nM	37 nM	42 nM	50 µM
O=C(N[C@@H]1CCCNCC1)[C@@H]1CC[C@@H]2CN1C(=O)N2OS(=O)(=O)O	6.25 µM	> 50000 nM	> 100 µM	1200 nM	520 nM	225 nM	12.5 µM
O=C(NC1CCNCC1)[C@@H]1CC[C@@H]2CN1C(=O)N2OS(=O)(=O)O [RELEBACTAM]	4.7 µM	> 50000 nM	> 100 µM	4100 nM	465 nM		12.5 µM
O=C(OC1CCNCC1)[C@@H]1CC[C@@H]2CN1C(=O)N2OS(=O)(=O)O	6.25 µM	13000 nM	> 100 µM	1100 nM	170 nM	9 nM	6.25 µM
CN(C(=O)[C@@H]1CC[C@@H]2CN1C(=O)N2OS(=O)(=O)O)C1CCNCC1	25 µM	> 50000 nM	> 100 µM	2100 nM	290 nM	2500 nM	50 µM
O=C(NC1CCS(=O)(=O)CC1)[C@@H]1CC[C@@H]2CN1C(=O)N2OS(=O)(=O)O	50 µM	> 50000 nM	> 100 µM	470 nM	9.5 nM	150 nM	50 µM
O=C(Nc1ccncc1)[C@@H]1CC[C@@H]2CN1C(=O)N2OS(=O)(=O)O	25 µM	20000 nM	> 100 µM	1050 nM	6 nM		50 µM

Second part, the molecule after the results:

INH (Pseudomonas aeruginosa)	IC50 (Beta-lactamase)	INH (Acinetobacter baumannii)	IC50 [1]	IC50 [2]	IC50 [3]	INH (Klebsiella pneumoniae)	Structure (SMILES)
25 µM	28000 nM	> 100 µM	1100 nM	11 nM	3 nM	50 µM	N[C@@H](Cc1ccc(NC(=O)[C@@H]2CC[C@@H]3CN2C(=O)N3OS(=O)(=O)O)cc1)C(=O)O
6.25 µM	> 50000 nM	> 100 µM	2200 nM	30 nM	77 nM	6.25 µM	O=C(NCC1CCNCC1)[C@@H]1CC[C@@H]2CN1C(=O)N2OS(=O)(=O)O
3.12 µM	> 50000 nM	> 100 µM	5600 nM	140 nM	410 nM	6.25 µM	O=C(N[C@H]1CCNC1)[C@@H]1CC[C@@H]2CN1C(=O)N2OS(=O)(=O)O
25 µM	> 50000 nM	> 100 µM	12000 nM	210 nM	260 nM	25 µM	C[n+]1ccc(NC(=O)[C@@H]2CC[C@@H]3CN2C(=O)N3OS(=O)(=O)[O-])cc1
6.25 µM	> 50000 nM	> 100 µM	27000 nM	1900 nM	260 nM	6.25 µM	O=C(N[C@@H]1CCNC1)[C@@H]1CC[C@@H]2CN1C(=O)N2OS(=O)(=O)O
50 µM	4800 nM	> 100 µM	460 nM	11 nM	10 nM	> 100 µM	O=C(O)c1ccc(NC(=O)[C@@H]2CC[C@@H]3CN2C(=O)N3OS(=O)(=O)O)cc1
12.5 µM	530 nM	> 100 µM	23 nM	1.2 nM	36 nM	100 µM	O=C(Nc1ccccn1)[C@@H]1CC[C@@H]2CN1C(=O)N2OS(=O)(=O)O
50 µM	360 nM	> 100 µM	100 nM	8 nM	11 nM	25 µM	Nc1cccc(NC(=O)[C@@H]2CC[C@@H]3CN2C(=O)N3OS(=O)(=O)O)n1
6.25 µM	> 50000 nM	> 100 µM	1700 nM	69 nM	245 nM	12.5 µM	O=C(N[C@H]1CCCNCC1)[C@@H]1CC[C@@H]2CN1C(=O)N2OS(=O)(=O)O
6.25 µM	4400 nM	> 100 µM	26 nM	3 nM	42 nM	12.5 µM	NCc1ccc(NC(=O)[C@@H]2CC[C@@H]3CN2C(=O)N3OS(=O)(=O)O)nc1
12.5 µM	> 50000 nM	> 100 µM	2700 nM	500 nM	240 nM	12.5 µM	CN1CCC(NC(=O)[C@@H]2CC[C@@H]3CN2C(=O)N3OS(=O)(=O)O)CC1
